# Assay results: PMC8596301 (Frontiers in Pharmacology, 2021)
# Like-named read-outs stand apart in the source and are kept apart here.
# Columns and labels:
# FLAG-mouse κOR [1] = target: T1, FLAG-mouse κOR (Mus musculus, UniProt P33534); assay: cell-based
# T1 construct: expressed in transfected cells; host or cells: HEK cells (HEK-293), transient, co-transfected with pGloSensor22F
# WT and δOR KO mice = assay: Seizure assay (modified Racine scale); type: in vivo, mouse
# Protocol: To assess drug-induced seizurogenic activity, mice were placed in a clear plastic cylinder (25 cm diameter, 35 cm height) immediately following drug injection and their activity was recorded in a well-lit, quiet room using iSpy camera software (iSpyConnect.com). A recording time of 90 min was chosen for the tested compounds based on previous observations of seizures time lengths in experiments with 30 mg∙kg^−1 paynantheine. If animals were not presenting with seizure activity after 30 min, the recording time was shortened accordingly. Seizure severity was scored based on the modified Racine scale (half-scores allowed) in bins of 3–5 min. Onset to first seizure symptom, onset to highest Racine score, and highest Racine score were also assessed. A summary of all statistical analyses for the seizure data can be found in Supplemental Table S3. In brief, seizure-like behavior between wild type and δOR KO mice was compared with a two-tailed, unpaired t test with Welch’s correction on area under the curve data generated from graphing the highest Racine score per time bin over 90 min for each mouse.
# C57Bl/6 male mice [2] = assay: Locomotor evaluation (ambulation)
# δOR = δOR (Homo sapiens, UniProt P41143); assay: biochemical; type: binding
# C57Bl/6 male mice [3] = assay: Tail flick thermal nociception assay; type: in vivo, mouse
# [4] = Maximum tolerated dose (side effect profile); settings: C57Bl/6, mouse, in vivo, sc, 10 mg∙kg^−1
# FLAG-mouse δOR [5] = target: T2, FLAG-mouse δOR (Mus musculus, UniProt P32300); assay: cell-based
# T2 construct: expressed in transfected cells; host or cells: HEK cells (HEK-293), transient, co-transfected with pGloSensor22F
# δOR KO mice = assay: Two-bottle choice alcohol paradigm (drinking in the dark, 10% ethanol vs. water); type: in vivo, mouse; settings: for Ethanol consumption: δOR KO male mice
# Protocol: (§1) Mice were subject to drinking in the dark (DID), limited access (4 h per day), two-bottle choice (10% ethanol vs. water) paradigm in which they were trained to consume alcohol voluntarily as previously described ([Rhodes et al., 2005]; [van Rijn and Whistler, 2009]). Mice reached stable alcohol consumption within 3 weeks of training, and after the third week, drug injections were administered prior to the daily drinking session on Friday. Drug’s effect on alcohol consumption was measured as the change in Friday’s alcohol intake minus the average alcohol intake from the preceding Tuesday–Thursday of that week (g∙kg^−1). A summary of all statistical analyses for the drinking data can be found in Supplemental Tables S6–S9. In brief, results from two-bottle choice alcohol consumption paradigms were assessed for statistical significance using RM two-way ANOVA for main effects of drug dose, treatment day, and drug dose × treatment day; Sidak’s multiple comparisons (MC) between alcohol consumption baseline (Tuesday–Thursday average) vs. treatment day consumption (Friday) were then used as the post hoc test for each drug dose tested. The same RM two-way ANOVA and Sidak’s MC post hoc analyses were used for water consumption and ethanol preference data. […] Sex differences between baseline data were evaluated using RM two-way ANOVA for main effects of sex, treatment baseline, and sex × treatment baseline; Sidak’s multiple comparisons (MC) between male and female mice were then used as the post hoc test for each treatment week tested.
# wild-type C57Bl/6 mice [6] = assay: as above; type: in vivo, mouse
# Protocol: as §1
# HA-mouse µOR [7] = target: T3, HA-mouse µOR (Mus musculus, UniProt P42866); assay: cell-based
# T3 construct: expressed in transfected cells; host or cells: HEK cells (HEK-293), transient, co-transfected with pGloSensor22F
# C57Bl/6 male mice [8] = assay: Brief and extended conditioned place preference paradigms; type: in vivo, mouse
# From the text: Mice were conditioned to drugs and vehicle as described previously in two-chamber conditioned place preference (CPP) boxes in a counterbalanced, unbiased approach for either two drug conditioning sessions over 2 days (brief) or four drug conditioning sessions over 8 days (extended) ([Váradi et al., 2015]; [Gutridge et al., 2020]). For brief and extended conditioned place preference experiments, separate groups of mice were used for each drug dose. A summary of all statistical analyses for the CPP data can be found in Supplemental Table S4. In brief, all CPP data were analyzed with two-tailed, paired t tests comparing time spent on the drug-paired side pre- and post-conditioning.
# κOR = κOR (Homo sapiens, UniProt P41145); assay: biochemical; type: binding
# C57Bl/6 male mice [9] = settings: ref Gutridge et al., 2020; cited from earlier work
# human ORs = system: human ORs; design: method as in Kruegel et al., 2016; settings: ref Kruegel et al., 2016; cited from earlier work
# wild-type C57Bl/6 mice [10] = settings: 10 and 30 mg∙kg^−1; male mice; ref Gutridge et al., 2020; cited from earlier work
# [11] = design: method as in Kamble et al., 2021; settings: rats; oral; 1.1 mg∙kg^−1; ref Kamble et al., 2021; cited from earlier work
# FLAG-mouse δOR [12] = target: T2, FLAG-mouse δOR; design: method as in Gutridge et al., 2020; settings: cited from earlier work
# FLAG-mouse κOR [13] = target: T1, FLAG-mouse κOR; design: method as in Gutridge et al., 2020; settings: cited from earlier work
# HA-mouse µOR [14] = target: T3, HA-mouse µOR; settings: cited from earlier work
# μOR = μOR (Homo sapiens, UniProt P35372); assay: biochemical; type: binding
# [15] = HEK293, read-out: cAMP α (% inhibition at maximal efficacy)
# [16] = 10 mg∙kg^−1 s.c., WT male and female mice
# [17] = 7-hydroxyspeciogynine 10 mg∙kg^−1 s.c., WT male mice
# [18] = ref Gutridge et al., 2020, read-out: cAMP IC50
# T2 sequence (P32300 whole entry): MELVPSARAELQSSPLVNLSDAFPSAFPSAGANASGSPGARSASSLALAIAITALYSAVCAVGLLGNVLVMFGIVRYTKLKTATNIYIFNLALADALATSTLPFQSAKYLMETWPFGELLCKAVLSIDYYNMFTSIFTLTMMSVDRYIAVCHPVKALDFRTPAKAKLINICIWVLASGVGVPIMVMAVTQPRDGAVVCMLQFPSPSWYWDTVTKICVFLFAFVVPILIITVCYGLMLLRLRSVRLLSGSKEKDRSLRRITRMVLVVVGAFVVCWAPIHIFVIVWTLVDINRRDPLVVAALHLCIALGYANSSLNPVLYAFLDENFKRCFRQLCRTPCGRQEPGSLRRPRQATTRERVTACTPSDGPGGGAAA
# T1 sequence (P33534 whole entry): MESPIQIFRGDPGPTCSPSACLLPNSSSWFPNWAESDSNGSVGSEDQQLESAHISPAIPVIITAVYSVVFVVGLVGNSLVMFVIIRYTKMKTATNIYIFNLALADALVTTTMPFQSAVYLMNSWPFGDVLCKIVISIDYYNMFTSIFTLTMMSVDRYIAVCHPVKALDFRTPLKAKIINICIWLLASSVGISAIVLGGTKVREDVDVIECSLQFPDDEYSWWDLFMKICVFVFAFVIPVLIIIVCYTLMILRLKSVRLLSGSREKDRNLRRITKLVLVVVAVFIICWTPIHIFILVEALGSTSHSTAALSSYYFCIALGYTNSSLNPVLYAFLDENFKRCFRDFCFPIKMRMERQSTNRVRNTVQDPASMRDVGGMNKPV
# κOR, sequence (P41145 whole entry): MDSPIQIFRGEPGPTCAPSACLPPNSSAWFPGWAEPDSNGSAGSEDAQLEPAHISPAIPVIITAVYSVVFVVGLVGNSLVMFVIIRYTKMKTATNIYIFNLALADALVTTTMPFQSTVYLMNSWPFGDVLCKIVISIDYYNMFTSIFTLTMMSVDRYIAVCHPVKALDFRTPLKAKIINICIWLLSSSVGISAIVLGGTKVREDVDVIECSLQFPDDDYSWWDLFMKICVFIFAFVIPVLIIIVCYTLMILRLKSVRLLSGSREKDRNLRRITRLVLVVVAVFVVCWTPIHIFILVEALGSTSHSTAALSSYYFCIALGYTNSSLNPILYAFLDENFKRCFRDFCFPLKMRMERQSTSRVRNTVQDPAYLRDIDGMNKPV
# T3 sequence (P42866 whole entry): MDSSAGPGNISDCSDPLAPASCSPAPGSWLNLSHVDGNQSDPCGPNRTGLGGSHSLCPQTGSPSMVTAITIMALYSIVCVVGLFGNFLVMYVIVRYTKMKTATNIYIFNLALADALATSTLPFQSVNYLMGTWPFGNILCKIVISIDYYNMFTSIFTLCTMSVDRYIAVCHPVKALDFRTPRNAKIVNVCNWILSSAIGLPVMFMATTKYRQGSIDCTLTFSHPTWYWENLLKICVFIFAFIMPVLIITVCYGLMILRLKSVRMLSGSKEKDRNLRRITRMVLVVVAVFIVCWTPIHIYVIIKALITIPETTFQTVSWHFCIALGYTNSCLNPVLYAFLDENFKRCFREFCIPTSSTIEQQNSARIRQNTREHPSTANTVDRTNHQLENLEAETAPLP
# μOR, sequence (P35372 whole entry): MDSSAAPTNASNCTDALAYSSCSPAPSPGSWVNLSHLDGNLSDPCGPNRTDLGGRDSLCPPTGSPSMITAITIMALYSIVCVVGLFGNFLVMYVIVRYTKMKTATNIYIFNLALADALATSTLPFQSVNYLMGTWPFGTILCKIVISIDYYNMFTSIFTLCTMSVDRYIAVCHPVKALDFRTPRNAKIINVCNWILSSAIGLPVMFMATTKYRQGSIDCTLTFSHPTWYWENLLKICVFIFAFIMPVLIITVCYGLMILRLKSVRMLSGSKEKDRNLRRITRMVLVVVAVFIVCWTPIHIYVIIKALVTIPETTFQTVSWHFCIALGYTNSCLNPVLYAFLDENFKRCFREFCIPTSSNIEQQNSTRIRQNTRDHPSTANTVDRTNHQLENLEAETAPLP
# δOR, sequence (P41143 whole entry): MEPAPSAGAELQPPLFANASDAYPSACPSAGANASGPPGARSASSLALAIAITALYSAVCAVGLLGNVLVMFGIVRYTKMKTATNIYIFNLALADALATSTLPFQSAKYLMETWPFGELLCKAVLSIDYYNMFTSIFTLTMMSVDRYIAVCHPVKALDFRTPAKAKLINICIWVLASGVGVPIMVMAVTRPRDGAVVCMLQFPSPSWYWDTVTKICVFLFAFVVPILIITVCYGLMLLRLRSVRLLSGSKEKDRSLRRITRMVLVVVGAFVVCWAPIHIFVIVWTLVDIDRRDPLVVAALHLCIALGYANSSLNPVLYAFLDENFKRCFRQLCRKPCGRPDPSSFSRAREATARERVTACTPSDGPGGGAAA
smiles,measurement,setting,value
"CC[C@H]1CN2CC[C@@]3(O)C(=Nc4cccc(OC)c43)[C@@H]2C[C@@H]1/C(=C\OC)C(=O)OC [7OH SPG, 7-Hydroxyspeciogynine]",IC50,FLAG-mouse κOR [1],7.71 µM
same,Emax,FLAG-mouse κOR [1]; [15],80 ± 20%
same,Seizures,"WT and δOR KO mice; 10 mg∙kg^−1 s.c., 30 min",nor induce noticeable seizures
same,Ambulation,"C57Bl/6 male mice [2]; 10 mg∙kg^−1 s.c., data from CPP experiment",did not significantly alter ambulation
same,Ki,δOR,0.46 µM
same,Block of morphine analgesia,"C57Bl/6 male mice [3]; 10 mg∙kg^−1 s.c., then morphine 6 mg∙kg^−1 s.c. 10 min later","did not produce antinociception (paired, two-tailed t test, t = 0.6193, df = 9, p = 0.5511) or block morphine analgesia"
same,Antinociception (agonist mode),"C57Bl/6 male mice [3]; 10 mg∙kg^−1 s.c., male mice",did not produce antinociception
same,MTD at 10 days,[4],≥ 10 mg/kg
same,IC50,FLAG-mouse δOR [5],2.27 µM
same,Emax,FLAG-mouse δOR [5]; [15],76 ± 6%
same,Ethanol consumption,δOR KO mice; 7-hydroxyspeciogynine 3 mg∙kg^−1 s.c.,lack of effect
same,Ethanol consumption,δOR KO mice; 7-hydroxyspeciogynine 10 mg∙kg^−1 s.c.,significantly decreased ethanol consumption
same,"Ethanol consumption, water consumption, ethanol preference","wild-type C57Bl/6 mice [6]; 3 mg∙kg^−1 s.c., WT female mice","did not significantly modulate ethanol consumption, water consumption, or ethanol preference"
same,"Δ ethanol intake, males and females pooled","wild-type C57Bl/6 mice [6]; 3 mg∙kg^−1 s.c., WT male and female mice",significant ethanol modulation effect
same,"Δ ethanol preference, males and females pooled",wild-type C57Bl/6 mice [6]; [16],significant decrease in ethanol preference
same,"Δ water consumption, males and females pooled",wild-type C57Bl/6 mice [6]; [16],concomitant increase in water consumption was evident
same,Decrease in ethanol consumption,"wild-type C57Bl/6 mice [6]; 10 mg∙kg^−1 s.c., WT mice",1.2 ± 0.2 g/kg
same,Reduction in ethanol consumption,"wild-type C57Bl/6 mice [6]; 10 mg∙kg^−1 s.c., WT mice",40 ± 7%
same,Ethanol preference,wild-type C57Bl/6 mice [6]; [17],corresponding decrease in ethanol preference
same,Water consumption,wild-type C57Bl/6 mice [6]; [17],concomitant increase in water consumption
same,Alcohol intake,"wild-type C57Bl/6 mice [6]; 7-hydroxyspeciogynine 3 and 10 mg∙kg^−1 s.c., wild-type male mice",reduced alcohol intake in a dose-dependent manner
same,IC50,HA-mouse µOR [7],0.61 µM
same,Emax,HA-mouse µOR [7]; [15],66 ± 6%
same,"Conditioned place preference, extended protocol","C57Bl/6 male mice [8]; 10 mg∙kg^−1 s.c., four conditioning sessions, male WT mice",did not develop conditioned place preference
same,Ki,κOR; Binding Ki (µM),1.63 µM
"C=C[C@H]1CN2CCc3c([nH]c4cccc(OC)c34)[C@@H]2C[C@@H]1/C(=C\OC)C(=O)OC [PAYN, paynantheine]","Convulsive behaviors, Racine level","WT and δOR KO mice; 30 mg∙kg^−1 i.p., wild type and δOR KO mice",1–2
same,Hyperlocomotion at effective dose,C57Bl/6 male mice [9],does not produce hyperlocomotion
same,Functional activity at human ORs,human ORs,weak antagonist
same,Effect on hyperlocomotion induced by 6 mg∙kg^−1 morphine,"C57Bl/6 male mice [2]; 10 and 30 mg∙kg^−1 i.p., data from CPP conditioning sessions",dose-dependently attenuated hyperlocomotion
same,Alcohol intake,wild-type C57Bl/6 mice [10],dose-dependently decreases alcohol intake
same,Detectability in plasma over time,[11],undetectable after an hour
same,Tmax in plasma,[11],10 min
same,Block of morphine analgesia,"C57Bl/6 male mice [3]; 10 mg∙kg^−1 i.p., morphine 6 mg∙kg^−1 s.c.",does not block morphine analgesia
same,Block of morphine analgesia,"C57Bl/6 male mice [3]; 30 mg∙kg^−1 i.p., morphine 6 mg∙kg^−1 s.c.",blocks morphine analgesia
same,Block of antinociception produced by 6 mg∙kg^−1 morphine,"C57Bl/6 male mice [3]; 10 and 30 mg∙kg^−1 i.p., 10 min before morphine s.c.",dose-dependently blocked antinociception
same,"Antinociceptive effect (agonist mode, %MPE)","C57Bl/6 male mice [3]; 10 and 30 mg∙kg^−1 i.p., 30 min",neither the 10 nor 30 mg∙kg^−1 dose displayed meaningful antinociceptive effects
same,cAMP α,"FLAG-mouse δOR [12]; normalized to Leu-enkephalin, ref Gutridge et al., 2020",64 ± 13
same,IC50,FLAG-mouse δOR [12]; [18],3.55 µM
same,cAMP pIC50,"FLAG-mouse δOR [12]; ref Gutridge et al., 2020",5.6 ± 0.2
same,cAMP α,"FLAG-mouse κOR [13]; normalized to U50,488, ref Gutridge et al., 2020",95 ± 5
same,IC50,FLAG-mouse κOR [13]; [18],7.43 µM
same,cAMP pIC50,HA-mouse µOR [14],5.4 ± 0.1
same,cAMP α,HA-mouse µOR [14],100 ± 0
same,IC50,HA-mouse µOR [14]; read-out: cAMP IC50,4.08 µM
same,Alcohol consumption,"δOR KO mice; paynantheine 10 mg∙kg^−1, male δOR KO mice",decreases alcohol consumption in δOR KO mice
same,"Conditioned place preference, extended CPP paradigm","C57Bl/6 male mice [8]; 10 mg∙kg^−1 i.p., four drug conditioning sessions, male mice",did not produce CPP nor CPA
same,"Conditioned place preference, brief CPP paradigm","C57Bl/6 male mice [8]; 10 mg∙kg^−1 i.p., two drug conditioning sessions, male mice",modest conditioned place aversion
same,Block of morphine CPP,"C57Bl/6 male mice [8]; 10 and 30 mg∙kg^−1 i.p. pretreatment, morphine 6 mg∙kg^−1, brief CPP",neither dose blocks morphine CPP
same,Ki,κOR; Binding Ki (µM),4 µM
same,Ki,κOR; Binding pKi,3.16 µM
same,Ki,μOR,0.52 µM
